Measured values as given in patent US8273776B2, “Biphenyl oxadiazole derivatives as sphingosine-1-phosphate receptors modulators” (Allergan, Inc, priority 2010, dated 2012).

Target: T1, human S1P1 receptor (Homo sapiens, UniProt P21453)
T1 construct: expressed in transfected cells; membranes used
Assay: GTP γ35S binding assay for S1P1 activity
Format: biochemical
Conditions: for % S1P1 STIMULATION @ 5 μM (%): GTPγ^35S binding, compound at 5 μM; for EC50: membranes of cells stably expressing the S1P1 receptor, test compounds 0.08 to 5,000 nM, read-out: S1P1 GTPγ^35S EC50
Description: Compounds were synthesized and tested for S1P1 activity using the GTP γ^35S binding assay. These compounds may be assessed for their ability to activate or block activation of the human S1P1 receptor in cells stably expressing the S1P1 receptor.
GTP γ^35S binding was measured in the medium containing (mM) HEPES 25, pH 7.4, MgCl2 10, NaCl 100, dithitothreitol 0.5, digitonin 0.003%, 0.2 nM GTP γ^35S, and 5 μg membrane protein in a volume of 150 μl. Test compounds were included in the concentration range from 0.08 to 5,000 nM unless indicated otherwise. Membranes were incubated with 100 μM 5′-adenylylimmidodiphosphate for 30 min, and subsequently with 10 μM GDP for 10 min on ice. Drug solutions and membrane were mixed, and then reactions were initiated by adding GTP γ^35S and continued for 30 min at 25° C. Reaction mixtures were filtered over Whatman GF/B filters under vacuum, and washed three times with 3 mL of ice-cold buffer (HEPES 25, pH7.4, MgCl2 10 and NaCl 100). Filters were dried and mixed with scintillant, and counted for ^35S activity using a β-counter. Agonist-induced GTP γ^35S binding was obtained by subtracting that in the absence of agonist. Binding data were analyzed using a non-linear regression method. In case of antagonist assay, the reaction mixture contained 10 nM S1P in the presence of test antagonist at concentrations ranging from 0.08 to 5000 nM.

T1 sequence (P21453 whole entry): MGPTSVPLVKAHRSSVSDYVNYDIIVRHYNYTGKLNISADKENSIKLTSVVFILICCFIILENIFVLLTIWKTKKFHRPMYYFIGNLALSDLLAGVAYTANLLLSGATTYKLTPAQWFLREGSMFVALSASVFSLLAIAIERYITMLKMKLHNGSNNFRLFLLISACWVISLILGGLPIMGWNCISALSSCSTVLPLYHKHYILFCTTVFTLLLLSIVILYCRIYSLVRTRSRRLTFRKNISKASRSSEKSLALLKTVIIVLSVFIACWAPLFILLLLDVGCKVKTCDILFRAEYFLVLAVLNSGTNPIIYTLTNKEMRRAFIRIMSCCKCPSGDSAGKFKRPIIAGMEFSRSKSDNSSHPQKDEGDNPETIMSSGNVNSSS

Row | Compound | % S1P1 STIMULATION @ 5 μM (%) | EC50 [nM]
1 | CC(C)Oc1ccc(-c2nc(-c3ccccc3-c3cccc(OCCCO)c3)no2)cc1C#N [Compound 1, 5-{3-[3′-(3-Hydroxy-propoxy)-biphenyl-2-yl]-[1,2,4]oxadiazol-5-yl}-2-isopropoxy-benzonitrile] | 76 | 1420
2 | O=C(O)CNCCCOc1cccc(-c2ccccc2-c2noc(-c3ccc(-c4cccc(F)c4)c(C(F)(F)F)c3)n2)c1 [Compound 2, (3-{2′-[5-(3′-Fluoro-2-trifluoromethyl-biphenyl-4-yl)-[1,2,4]oxadiazol-3-yl]-biphenyl-3-yloxy}-propylamino)acetic acid] | 96 | 552
3 | CC(C)Oc1ccc(-c2nc(-c3ccccc3-c3cccc(OCCCNCC(=O)O)c3)no2)cc1C#N [Compound 3, (3-{2′-[5-(3-Cyano-4-isopropoxy-phenyl)-[1,2,4]oxadiazol-3-yl]-biphenyl-3-yloxy}-propylamino)-acetic acid] | 85 | 82
